{"source": "PubChem BioAssay AID651851", "about": "(Broad Institute, 2012)", "note": "The source made the active and inactive calls. No rule for the calls is given here.", "data": [{"system": "not listed separately", "assay": "growth inhibition of replicating M. tuberculosis, dose response, counter-screen, log phase (AID 651851)", "conditions": "Mycobacterium tuberculosis log-phase replicating growth inhibition", "values": [{"smiles": "Fc1ccc(Cn2cc(CSc3nnc(-c4ccc(Cl)cc4)o3)nn2)cc1", "outcome": "inactive"}, {"smiles": "Clc1ccc(-c2nnc(SCc3cn(Cc4ccccc4)nn3)o2)cc1", "outcome": "inactive"}]}, {"system": "Mycobacterium tuberculosis log-phase replicating growth inhibition", "assay": "growth inhibition of replicating M. tuberculosis, dose response, counter-screen, log phase (AID 651851)", "conditions": "not given", "units": {"IC90": "µM"}, "values": [{"smiles": "O=S(Cc1cn(Cc2ccccc2)nn1)c1nnc(-c2ccc(Cl)cc2)o1", "note": "(stereo not drawn)", "IC90": 62}, {"smiles": "O=S(Cc1cn(Cc2ccc(F)cc2)nn1)c1nnc(-c2ccc(Cl)cc2)o1", "note": "(stereo not drawn)", "IC90": 62}, {"smiles": "c1ccc(CSc2nnc(-c3ccccc3)o2)cc1", "IC90": 250}, {"smiles": "O=S(Cc1ccccc1)c1nnc(-c2ccccc2)o1", "note": "(stereo not drawn)", "IC90": 31}, {"smiles": "O=S(=O)(Cc1ccccc1)c1nnc(-c2ccccc2)o1", "IC90": 62}, {"smiles": "O=S(=O)(Cc1cn(Cc2ccccc2)nn1)c1nnc(-c2ccc(Cl)cc2)o1", "IC90": 62}]}]}
